Converted amounts (≈) assume the structure as drawn.
Experiments:
Enterobacter spp. = assay: In vitro MIC, agar dilution; type: cell-based; conditions: Enterobacter
H. pylori = assay: In vitro MIC, agar dilution; type: cell-based; conditions: Helicobacter pylori
P. aeruginosa (CiproS) = assay: In vitro MIC, agar dilution; type: cell-based; conditions: Pseudomonas aeruginosa
M. avium = assay: In vitro MIC, agar dilution; type: cell-based; conditions: Mycobacterium avium
P. aeruginosa (CiproR) = assay: In vitro MIC, agar dilution; type: cell-based
E. faecalis (VanS) = assay: In vitro MIC, agar dilution; type: cell-based; conditions: Enterococcus faecalis
S. pneumoniae (CiproR) = assay: In vitro MIC, agar dilution; type: cell-based; conditions: Streptococcus pneumoniae, read-out: MIC Range
[1] = tested on: Streptococcus pneumoniae 6303; assay: In vivo efficacy, mouse infection (ED50); conditions: Streptococcus pneumoniae, 6303, in Mus musculus, 168 h
M. pneumoniae = assay: In vitro MIC, agar dilution; type: cell-based; conditions: Mycoplasmoides pneumoniae, read-out: MIC Range
[2] = tested on: staphylococcus aureus NTCC 10649; assay: In vivo efficacy, mouse infection (ED50); conditions: Staphylococcus aureus, NTCC10649, in Mus musculus, 168 h
S. pyogenes = assay: In vitro MIC, agar dilution; type: cell-based; conditions: Streptococcus pyogenes
C. difficile = assay: In vitro MIC, agar dilution; type: cell-based; conditions: Clostridioides difficile
S. epidermidis (CiproS) = assay: In vitro MIC, agar dilution; type: cell-based; conditions: Staphylococcus epidermidis
C. freundii = assay: In vitro MIC, agar dilution; type: cell-based; conditions: Citrobacter freundii
M. catarrhalis = assay: In vitro MIC, agar dilution; type: cell-based; conditions: Moraxella catarrhalis
E. faecium (VanS) = assay: In vitro MIC, agar dilution; type: cell-based; conditions: Enterococcus faecium
B. fragilis = assay: In vitro MIC, agar dilution; type: cell-based; conditions: Bacteroides fragilis
S. pneumoniae (PenS) = assay: In vitro MIC, agar dilution; type: cell-based; conditions: Streptococcus pneumoniae
P. mirabilis = assay: In vitro MIC, agar dilution; type: cell-based; conditions: Proteus mirabilis
Klebsiella spp. = assay: In vitro MIC, agar dilution; type: cell-based; conditions: Klebsiella
S. epidermidis (CiproR) = assay: In vitro MIC, agar dilution; type: cell-based; conditions: Staphylococcus epidermidis
H. influenzae = assay: In vitro MIC, agar dilution; type: cell-based; conditions: Haemophilus influenzae
Providencia spp. = assay: In vitro MIC, agar dilution; type: cell-based
S. pneumoniae (PenR) = assay: In vitro MIC, agar dilution; type: cell-based; conditions: Streptococcus pneumoniae
Shigella spp. = assay: microbe, parasite or virus in culture; type: cell-based; conditions: read-out: MIC Range
Enterococcus spp. (VanR) = assay: In vitro MIC, agar dilution; type: cell-based; conditions: Enterococcus
Legionella spp. = assay: microbe, parasite or virus in culture; type: cell-based; conditions: Legionella
N. gonorrhoeae = assay: In vitro MIC, agar dilution; type: cell-based; conditions: Neisseria gonorrhoeae
[3] = tested on: ciprofloxacin resistant staphylococcal strains; assay: In vitro MIC, agar dilution (summary in text); type: cell-based
S. aureus (CiproR) = assay: In vitro MIC, agar dilution; type: cell-based; conditions: Staphylococcus aureus
E. faecium (CiproS) = assay: In vitro MIC, agar dilution; type: cell-based; conditions: Enterococcus faecium
S. aureus (CiproS) = assay: In vitro MIC, agar dilution; type: cell-based; conditions: Staphylococcus aureus
Salmonella spp. = assay: In vitro MIC, agar dilution; type: cell-based; conditions: 23 isolates
Description: (§1) Each plate was inoculated with 1:100 (or 1:10 for slow-growing strains, primarily Micrococcus and Streptococcus) dilutions of up to 32 different microorganisms, using a Steers replicator block calibrated to deliver approximately 10^4 colony forming units (CFU's). The inoculated plates were incubated at from about 35° C. to about 37 ° C. for approximately 20-24 hours. In addition, a control plate using BHI agar containing no test compound was prepared and incubated at the beginning and at the end of each test. The quinolone antibacterial ciprofloxacin was used as a control ("Cntl").
(§2) The numbers below the microorganism species indicate the nunbers of isolates tested. […] The MIC is defined as the lowest concentration of test compound yielding no growth (a slight haze or sparsely isolated colonies at the inoculum spot) as compared to the growth control containing no test compound.

E. coli = assay: In vitro MIC, agar dilution; type: cell-based; conditions: Escherichia coli, 25 isolates
Description: as §1, §2

Escherichia coli JUHL = assay: In vivo efficacy, mouse infection (ED50); conditions: Escherichia coli, in Mus musculus, 168 h

O=C(O)c1cn(C2CC2)c2cc(N3CCNCC3)c(F)cc2c1=O [Ciprofloxacin, ciprofloxacin]
MIC50 (Enterobacter spp.): 0.015 µg/mL (≈ 0.0453 µM)
MIC90 (Enterobacter spp.): 0.03 µg/mL (≈ 0.0905 µM)
MIC (Enterobacter spp.; read-out: MIC Range): 0.008 to 0.12 µg/mL (≈ 0.0241 to 0.362 µM)
MIC50 (H. pylori): 0.5 µg/mL (≈ 1.51 µM)
MIC90 (H. pylori): 0.5 µg/mL (≈ 1.51 µM)
MIC (H. pylori; read-out: MIC Range): 0.12 to 0.5 µg/mL (≈ 0.362 to 1.51 µM)
MIC50 (P. aeruginosa (CiproS)): 0.12 µg/mL (≈ 0.362 µM)
MIC90 (P. aeruginosa (CiproS)): 0.5 µg/mL (≈ 1.51 µM)
MIC (P. aeruginosa (CiproS); read-out: MIC Range): 0.06 to 2 µg/mL (≈ 0.181 to 6.04 µM)
MIC50 (M. avium): 16 µg/mL (≈ 48.3 µM)
MIC90 (M. avium): 32 µg/mL (≈ 96.6 µM)
MIC50 (P. aeruginosa (CiproR); Pseudomonas aeruginosa): 64 µg/mL (≈ 193 µM)
MIC90 (P. aeruginosa (CiproR); Pseudomonas aeruginosa): 128 µg/mL (≈ 386 µM)
MIC90 (P. aeruginosa (CiproR); ciprofloxacin resistant P. aeruginosa strains): 128 (g/mL
MIC50 (E. faecalis (VanS)): 2 µg/mL (≈ 6.04 µM)
MIC90 (E. faecalis (VanS)): 4 µg/mL (≈ 12.1 µM)
MIC (E. faecalis (VanS); read-out: MIC Range): 1 to 4 µg/mL (≈ 3.02 to 12.1 µM)
MIC (S. pneumoniae (CiproR)): 4 to 8 µg/mL (≈ 12.1 to 24.1 µM)
ED50 ([1]; po): > 100 mg/kg
ED50 ([1]; sc): > 50 mg/kg
MIC (M. pneumoniae): 1 to 2 µg/mL (≈ 3.02 to 6.04 µM)
ED50 ([2]; po): 18.3 mg/kg
ED50 ([2]; sc): 3.1 mg/kg
MIC50 (S. pyogenes): 0.5 µg/mL (≈ 1.51 µM)
MIC90 (S. pyogenes): 1 µg/mL (≈ 3.02 µM)
MIC (S. pyogenes; read-out: MIC Range): 0.25 to 4 µg/mL (≈ 0.754 to 12.1 µM)
MIC50 (C. difficile): 16 µg/mL (≈ 48.3 µM)
MIC90 (C. difficile): 16 µg/mL (≈ 48.3 µM)
MIC (C. difficile; read-out: MIC Range): 16 µg/mL (≈ 48.3 µM)
MIC50 (S. epidermidis (CiproS)): 0.25 µg/mL (≈ 0.754 µM)
MIC90 (S. epidermidis (CiproS)): 0.25 µg/mL (≈ 0.754 µM)
MIC (S. epidermidis (CiproS); read-out: MIC Range): 0.06 to 0.5 µg/mL (≈ 0.181 to 1.51 µM)
MIC50 (C. freundii): 0.015 µg/mL (≈ 0.0453 µM)
MIC90 (C. freundii): 0.12 µg/mL (≈ 0.362 µM)
MIC (C. freundii; read-out: MIC Range): 0.004 to 0.5 µg/mL (≈ 0.0121 to 1.51 µM)
MIC50 (M. catarrhalis): 0.03 µg/mL (≈ 0.0905 µM)
MIC90 (M. catarrhalis): 0.06 µg/mL (≈ 0.181 µM)
MIC (M. catarrhalis; read-out: MIC Range): 0.008 to 0.06 µg/mL (≈ 0.0241 to 0.181 µM)
MIC50 (E. faecium (VanS)): 4 µg/mL (≈ 12.1 µM)
MIC90 (E. faecium (VanS)): 4 µg/mL (≈ 12.1 µM)
MIC (E. faecium (VanS); read-out: MIC Range): 1 to 4 µg/mL (≈ 3.02 to 12.1 µM)
MIC50 (B. fragilis): 8 µg/mL (≈ 24.1 µM)
MIC90 (B. fragilis): 16 µg/mL (≈ 48.3 µM)
MIC (B. fragilis; read-out: MIC Range): 4 to 32 µg/mL (≈ 12.1 to 96.6 µM)
MIC50 (S. pneumoniae (PenS)): 2 µg/mL (≈ 6.04 µM)
MIC90 (S. pneumoniae (PenS)): 4 µg/mL (≈ 12.1 µM)
MIC (S. pneumoniae (PenS); read-out: MIC Range): 1 to 8 µg/mL (≈ 3.02 to 24.1 µM)
MIC50 (P. mirabilis): 0.015 µg/mL (≈ 0.0453 µM)
MIC90 (P. mirabilis): 0.03 µg/mL (≈ 0.0905 µM)
MIC (P. mirabilis; read-out: MIC Range): 0.015 to 0.06 µg/mL (≈ 0.0453 to 0.181 µM)
MIC50 (Klebsiella spp.): 0.06 µg/mL (≈ 0.181 µM)
MIC90 (Klebsiella spp.): 0.12 µg/mL (≈ 0.362 µM)
MIC (Klebsiella spp.; read-out: MIC Range): 0.004 to 0.5 µg/mL (≈ 0.0121 to 1.51 µM)
MIC50 (S. epidermidis (CiproR)): 16 µg/mL (≈ 48.3 µM)
MIC90 (S. epidermidis (CiproR)): > 128 µg/mL
MIC50 (H. influenzae): 0.015 µg/mL (≈ 0.0453 µM)
MIC90 (H. influenzae): 0.015 µg/mL (≈ 0.0453 µM)
MIC (H. influenzae; read-out: MIC Range): 0.008 to 0.015 µg/mL (≈ 0.0241 to 0.0453 µM)
MIC50 (Providencia spp.; Providencia): 0.03 µg/mL (≈ 0.0905 µM)
MIC90 (Providencia spp.; Providencia): 0.25 µg/mL (≈ 0.754 µM)
MIC (Providencia spp.; Providencia spp., 28 isolates, read-out: MIC Range): 0.015 to 0.25 µg/mL (≈ 0.0453 to 0.754 µM)
MIC50 (S. pneumoniae (PenR)): 2 µg/mL (≈ 6.04 µM)
MIC90 (S. pneumoniae (PenR)): 2 µg/mL (≈ 6.04 µM)
MIC (S. pneumoniae (PenR); read-out: MIC Range): 1 to 2 µg/mL (≈ 3.02 to 6.04 µM)
MIC (Shigella spp.): 0.008 to 0.015 µg/mL (≈ 0.0241 to 0.0453 µM)
MIC50 (Enterococcus spp. (VanR)): 4 µg/mL (≈ 12.1 µM)
MIC90 (Enterococcus spp. (VanR)): 4 µg/mL (≈ 12.1 µM)
MIC50 (Legionella spp.): 0.25 µg/mL (≈ 0.754 µM)
MIC90 (Legionella spp.): 0.5 µg/mL (≈ 1.51 µM)
MIC (Legionella spp.; read-out: MIC Range): 0.12 to 0.5 µg/mL (≈ 0.362 to 1.51 µM)
MIC50 (N. gonorrhoeae): 8 ng/mL (≈ 0.0241 µM)
MIC90 (N. gonorrhoeae): 0.03 µg/mL (≈ 0.0905 µM)
MIC (N. gonorrhoeae; read-out: MIC Range): 0.004 to 0.12 µg/mL (≈ 0.0121 to 0.362 µM)
MIC90 [3]: > 128 µg/mL
MIC50 (S. aureus (CiproR)): 32 µg/mL (≈ 96.6 µM)
MIC90 (S. aureus (CiproR)): 128 µg/mL (≈ 386 µM)
MIC50 (E. faecium (CiproS)): 2 µg/mL (≈ 6.04 µM)
MIC90 (E. faecium (CiproS)): 4 µg/mL (≈ 12.1 µM)
MIC (E. faecium (CiproS); read-out: MIC Range): 2 to 4 µg/mL (≈ 6.04 to 12.1 µM)
MIC50 (S. aureus (CiproS)): 0.25 µg/mL (≈ 0.754 µM)
MIC90 (S. aureus (CiproS)): 0.5 µg/mL (≈ 1.51 µM)
MIC (S. aureus (CiproS); read-out: MIC Range): 0.06 to 0.5 µg/mL (≈ 0.181 to 1.51 µM)
MIC (Salmonella spp.): 0.004 to 0.5 µg/mL (≈ 0.0121 to 1.51 µM)
MIC50 (Salmonella spp.; read-out: MIC50): 0.03 µg/mL (≈ 0.0905 µM)
MIC90 (Salmonella spp.; read-out: MIC90): 0.03 µg/mL (≈ 0.0905 µM)
MIC (E. coli): 0.008 to 0.03 µg/mL (≈ 0.0241 to 0.0905 µM)
MIC50 (E. coli; read-out: MIC50): 0.03 µg/mL (≈ 0.0905 µM)
MIC90 (E. coli; read-out: MIC90): 0.03 µg/mL (≈ 0.0905 µM)
ED50 (Escherichia coli JUHL; po): 4.1 mg/kg
ED50 (Escherichia coli JUHL; sc): 1 mg/kg
